The values below come from US8796336B2, “Methoxypolyethylene glycol chelate and uses thereof” (Eastern Virginia Medical School, priority 2006, dated 2014).

Experiment [1] concerns retinal ganglion cells (RGC). The experiment can be described thus: NMDA retinal damage model, scotopic electroretinogram A and B waves. Type of experiment: in vivo, rats. To be noted: for A wave, % Baseline, Intravitreal / B wave, % Baseline, Intravitreal: intravitreal 2 mM co-administered with 2 ul 10 mM NMDA; for A wave, % Baseline, Topical / B wave, % Baseline, Topical: topical 100 mM, 20 μl 3 times per day, 5 days prior and 3 days post-NMDA. The method, then:
Changes in electroretinogram (ERG) A and B waves have been used as indicators of RGC damage. To examine RGC neuroprotection, 2 ul intravitreal injections of 10 mM NMDA, sufficient to change ERG A and B-waves within 2 weeks, were challenged with co-administered intravitreal (2 mM) or topical 100 mM MPDTE, MPSEDE and amifostine in normal rats unilaterally. For topical administration, rats were pretreated for 5 days prior and 3 days post-NMDA administration with the agents at a frequency of 3 times per day with 20 μl agent. Scotopic ERG changes were measured in normal rats. Rats were dark adapted for at least 4 hrs. Eyes were dilated with atropine after which proparacaine and methylcellulose gel were applied topically. Custom made AgCl electrodes (64-1317, Warner Instruments, Hamden, Conn.) were placed on the apex of the cornea. Stimuli consisted of 10-microsec flashes of unattenuated white light generated by Ganzfield bowl photo stimulator (Grass Instruments, PS22, Quincy, Mass.). Data from each eye was recorded separately with a driver amplifier (Grass Instruments, Model 7DAF Polygraph, Quincy, Mass.). Data was acquired digitally via DASYLab (Bedford, N.H.). The contralateral normal eye served as an age matched negative control, e.g. response in a normal, undamaged eye. Differences in amplitude of the A-wave and B-waves between the treated eye and the contralateral eye and between treatment groups were calculated.

Experiment [2] deals with intraocular pressure (IOP). The experiment can be described thus: Topical application for IOP measurements on rat surgical glaucoma (ocular hypertensive) model. Type of experiment: in vivo, male SpragueDawley rats. The method, then: Ocular hypertension was induced in 9 male SpragueDawley rats, weighing between 400 to 500 grams. Under general anesthesia with acepromazine maleate (12 mg/Kg) and ketamine (80 mg/Kg), IP, and topical proparacaine (0.5%), dissection of the conjunctiva was made with fine cuts. To reduce the stimulus for revascularization or neovascularization, dissection of the right eye was limited to the area immediately surrounding the vortex veins. Three of four vortex veins were exposed and ligated using 9.0 nylon sutures. Criterion for inclusion into the study was an intraocular pressure (IOP) increase of 5 mm Hg or more when compared to […] baseline IOP. Within 6 weeks, the IOP of all the operated eyes increased at least 5 mm Hg compared to baseline. National Institutes of Health Guidelines and Association for Research in Vision and Ophthalmology statement for the Use and Care of Animals were followed in this study.
Prior to initiation of treatment, baseline IOP was obtained in glaucoma rat models. IOP was measured via a specially modified Goldmann applanation tonometer (HAAG-STREIT, Bern, Switzerland) under sedation. Measurements are averages of two consecutive readings and were made at the same time of day and by the same observers.
Rats were treated topically with 20 μl of MP compounds (0.3-100 mM; n=3-6) on the operated eyes. […]

The next experiment concerns H9C2 cells. The experiment is described as follows: Doxorubicin chemotoxicity on H9C2 cells, intracellular calcium by fluo-3 AM. In kind it is cell-based, rat. To be noted: 10 min exposure to 50 μM doxorubicin, cells without MPDTE pretreatment. Here is the method: H9C2 cells, which are used as models for rat striated muscle, were cultured using techniques described previously (Lattanzio, F A Jr., Tiangco, D., Osgood, C., Beebe, S., Kerry, J. and Hargrave B Y. Cocaine increases intracellular calcium and reactive oxygen species, depolarizes mitochondria, and activates genes associated with heart failure and remodeling. Cardiovascular Toxiology (20050 5: 377-389). Fluorescent calcium indicator and ROS indicator were used to determine if the reported increase in intracellular calcium and ROS activity occurred and whether these changes were reduced in the presence of 2 mM MPSEDE or MPDTE. Cells were measured using a Zeiss 510 fluorescent confocal microscope as described in Lattanzio et al, 2005.
H9C2 cells, a rat myocyte model, were cultured in MEM until confluent using techniques described in Lattanzio et al, 2005. The cells were treated with 5 μM fluo-3 AM, a fluorescent calcium indicator, for 30 min at 37 C, washed and then exposed to 50 μM doxorubicin (a supermaximal toxic dose), in the presence or absence of 30 min pretreatment with 2 mM MPDTE. Doxorubicin increases intracellular calcium in cardiac cells by disrupting calcium homeostasis through the production of free radical damage and subsequent membrane damage. […] Protection may have occurred due to a combination of free radical scavenging and calcium chelation.
Background: Calcium assays in cells follow changes in intracellular calcium, usually with a dye or a luminescent sensor.

Consider `CN[C@H](CC(=O)O)C(=O)O` [NMDA, N-methyl-D-aspartate], for which, in experiment [1], the “A wave, % Baseline, Intravitreal” value is 51.2 % Baseline; the “B wave, % Baseline, Intravitreal” value stood at 68.4 % Baseline; the “A wave, % Baseline, Topical” value was determined as 51.2 % Baseline; the “B wave, % Baseline, Topical” value is recorded as 68.4 % Baseline.

On to “polyethylene glycol monomethyl ether [MP]”, for which the “IOP reduction of the components” value in experiment [2] (MP or DTE administered alone or together, not as great as with MPDTE, FIG. 10) is recorded as “reduction in IOP”.

On to “methoxypolyethlene glycol thioester of ethylenediaminetetraacetic acid methyl triester [MPSEDE]”, for which the IOP reduction entry in experiment [2] (single topical dose of 10-100 mM, FIG. 5-7) was “significantly reduced IOP”. Moreover, the “reduction of NMDA damage” value in experiment [1] (both intravitreal and topical administration (Table 1)) was “significantly reduced NMDA damage”. In experiment [1] (co-administration with NMDA, at the dose tested), the “reduction of NMDA damage” value is “trend to reduce NMDA damage, but this was not significant”. Further, in experiment [1], the “A wave, % Baseline, Intravitreal” value turned out to be 76.2 % Baseline; the “B wave, % Baseline, Intravitreal” value came to 69.6 % Baseline; the “A wave, % Baseline, Topical” value was determined as 95.9 % Baseline; the “B wave, % Baseline, Topical” value worked out at 93.7 % Baseline.

`NCCCNCCSP(=O)(O)O` [amifostine, S-2-[3-aminopropylamino]ethylphosphorothioate]: in experiment [1], the “A wave, % Baseline, Intravitreal” value is reported as 94.2 % Baseline; the “B wave, % Baseline, Intravitreal” value was 83.3 % Baseline; the “A wave, % Baseline, Topical” value stood at 69.4 % Baseline; the “B wave, % Baseline, Topical” value is recorded as 99.3 % Baseline.

On to `COc1cccc2c1C(=O)c1c(O)c3c(c(O)c1C2=O)C[C@@](O)(C(=O)CO)C[C@@H]3O[C@H]1C[C@H](N)[C@H](O)[C@H](C)O1` [doxorubicin], for which the “increase of intracellular calcium” value in the experiment on H9C2 cells came to 59.4%.
